Experimental data taken from patent US20180214400A1, “THE USE OF KAURANES COMPOUNDS IN THE MANUFACTURE OF MEDICAMENT FOR TREATMENT OF CADIAC HYPERTROPY AND PULMONARY HYPERTENSION” (KEY-PHARMA BIOMEDICAL INC., priority 2015, published 2018).

Experiments:
TAC rats [1] = test: Heart rate variability spectral analysis in TAC rats; format: in vivo; conditions: TAC for 9 weeks
Experimental: Three or nine weeks after TAC operation, rats were anesthetized with pentobarbital sodium (i.p. 40 mg/kg). The electrocardiogram (ECG) was measured using the II Einthoven lead. Three stainless steel 22G needle electrodes were localized in the insertion of the right (G1) and left (GND) front legs, and in the left (G2) rear leg. Accordingly, 10 min of ECG recordings were digitally acquired at 2 kHz prior to any maneuver. Heart rate variability-Spectral Analysis was performed using fast Fourier transformation. Oscillatory components were separated into very low frequency (VLF; <0.04 Hz), low frequency (LF; 0.04-0.6 Hz), or high frequency (HF; 0.6-2.5 Hz) bands. HRV components were expressed in normalized units (n.u.) as a percentage of total power minus the VLF component. Efferent vagal parasympathetic activity is a major contributor to the HF component and both sympathetic and vagal influences contribute to the LF component; thus the ratio of LF to HF is commonly utilized as a measure of sympathovagal balance. Parameters of the heart rate variability (HRV) are indicators for cardiac autonomic balance. […] This invention disclosed a novel used of compound A for restore cardiac autonomic balance by suppress elevated sympathetic activity, which sildenafil had no such effect.

TAC rats [2] = test: Actin remodeling (FITC-phalloidin) and cardiac fibrosis (picrosirius red) in TAC rats; format: in vivo, Wistar rats; conditions: for reduction in interstitial fibrosis: 8 mg/kg/d; for level of myocardia F-actin (FITC-phalloidin staining): 9 weeks TAC, compound A 8 mg/kg/d, sildenafil 70 mg/kg/d
Experimental: TAC between the innominate artery and the left carotid artery was conducted to induce pressure overload for 3 weeks (3-week TAC) or 9 weeks (9-week TAC). Sham control animals underwent the same operation, but without aortic constriction. All surgical procedures were performed with animals anesthetized with 3% pentobarbital sodium injected intraperitoneally (i.p. 40 mg/kg). During the surgery period, rats were intubated and ventilated with a rodent ventilator (Harvard Apparatus, Holliston, Mass., USA). Both 3-week and 9-week TAC-exposed rats were randomly divided into five groups (n=8-10 rats) including a TAC vehicle control, COMPOUND A, low (TAC+COMPOUND A (L), 1 mg/kg/d), middle (TAC+COMPOUND A (M), 2 mg/kg/d), high (TAC+COMPOUND A (H), 8 mg/kg/d) dose group respectively, and sildenafil (TAC+Sil, 70 mg/kg/d) as a positive control group. Sham controls were all treated with vehicle. Acute and chronic mortality from the TAC procedure was <5%. The treat group was intra-gastric administrated with sodium salt of compound A which was solved in a mixture of saline and organic solvent of the same volume (1:1, 0.5 ml) and sildenafil which was solved in distilled water. All drugs and vehicle treatment were given twice a day after surgery for three days as designed. The animals were examined at 3 weeks and 9 weeks after surgery accordingly. At the end of the observation periods and after hemodynamic measurement in vivo, all animals were sacrificed and hearts were explanted for further Analyses. Tissue sections of rat hearts were fixed in 10% neutral-buffered formalin, embedded in paraffin, cut into […] serial sections, and then stained with haematoxylin and eosin (H&E), picrosirius red or phalloidin. Nikon system and Zeiss confocal microscope were used to capture digital images. Stained with H&E was to evaluate cell size, stained with picrosirius red (sigma CA) was to test fibrosis using standard procedure and the amount of F-actin was stained with phalloidin. We determined cross sectional cell area and interstitial collagen fraction using computer-assisted image analysis (Image-Pro Plus software), with the observer blinded as to tissue source. At least four or five different hearts were quantified for analysis. Some transcription factors important for hypertrophy influence actin dynamics, which is regulated by free G-actin and polymeric F-actin. A higher F-to-G actin content is an important result of the activation of hypertrophy pathways. The level of myocardia F-actin was measured by FITC-phalloidin staining. […] TAC increased the level of F actin, thus lead to actin dynamics. Both compound A and sildenafil can reduced the expression of F actin and maintain F/G actin balance. To determine whether compound A attenuates TAC-induced cardiac fibrosis, heart tissues were stained with picrosirius red to detect interstitial collagen distribution in left ventricular. In both 3-week and 9-week TAC groups, TAC induced significant interstitial fibrosis (P<0.05). The collagen content increased 5.7 fold and 7.5 fold in 3-week and 9-week TAC control groups, respectively, compared to sham control group.

[3] = test system: pulmonary hypertension rats; test: Pressure overload (TAC)-induced pulmonary hypertension, lung histology; format: in vivo, wistar rats; design: Mean vascular wall thickness: unit not given here; conditions: for Mean vascular wall thickness: 9 weeks TAC
Experimental: Pressure overloaded-induced pulmonary hypertension was induced by transverse aortic constriction in male wistar rats (200±20 g body weight). Sham operated rats served as controls. […] After 9 weeks, animals were sacrificed and lungs were fixed, paraffin-embedded, sectioned, and stained with hematoxylin and eosin. Blinded stereological Analysis of mean wall thickness and vascular muscularization of lung arterial vessels was performed. Collagen I was verified by immune-fluorescent staining and visualized in confocal.

C[C@@]12CC[C@@H]3[C@@](CC[C@H]4[C@@]3(C)CCC[C@@]4(C)C(=O)O)(CC1=O)C2 [Compound A, (4α,8β,13β)-13-methyl-16-oxo-17-norkauran-18-oic acid]
LF/HF ratio (TAC rats [1]): reversed to normal | reduction in interstitial fibrosis (TAC rats [2]; 3-week TAC): 58.2% | reduction in interstitial fibrosis (TAC rats [2]; 9-week TAC): 80.8% | level of myocardia F-actin (FITC-phalloidin staining) (TAC rats [2]): returned to control conditions | Fully muscularization ([3]; 1 mg/kg + TAC): 10.20 ± 9.787 % | Non-muscularization ([3]; 1 mg/kg + TAC): 66.78 ± 5.876 % | Partially muscularization ([3]; 1 mg/kg + TAC): 23.00 ± 3.938% | Fully muscularization ([3]; 4 mg/kg + TAC): 1.851 ± 3.207^#& % | Non-muscularization ([3]; 4 mg/kg + TAC): 81.10 ± 16.60 % | Partially muscularization ([3]; 4 mg/kg + TAC): 17.04 ± 18.98% | number of non-muscularization vessels ([3]; lung, TAC rats): increased | production of collagen I ([3]; lung, TAC rats): reduced | vascular remodeling in small and medium arteries ([3]; lung, TAC rats): prevented | fluorescent intensity of collagen I ([3]; lung, 1 mg/kg + TAC): 10.75 | Mean vascular wall thickness ([3]; pulmonary arterioles inner diameter <100 um, 1 mg/kg): 22.96 ± 7.83 | Mean vascular wall thickness ([3]; pulmonary arterioles inner diameter <100 um, 4 mg/kg): 17.60 ± 6.28^##&& | Mean vascular wall thickness ([3]; pulmonary arterioles inner diameter >100 um, 1 mg/kg): 16.60 ± 6.00 | Mean vascular wall thickness ([3]; pulmonary arterioles inner diameter >100 um, 4 mg/kg): 10.67 ± 5.01

CCCc1nn(C)c2c(=O)[nH]c(-c3cc(S(=O)(=O)N4CCN(C)CC4)ccc3OCC)nc12 [sildenafil, reference compound]
LF/HF ratio (TAC rats [1]): did not reduce | level of myocardia F-actin (FITC-phalloidin staining) (TAC rats [2]): returned to control conditions | inhibition effect on cardiac fibrosis compared to compound A (TAC rats [2]; TAC rats): less inhibition effect | Fully muscularization ([3]; 70 mg/kg + TAC): 23.80 ± 8.247 % | Non-muscularization ([3]; 70 mg/kg + TAC): 57.57 ± 7.182 % | Partially muscularization ([3]; 70 mg/kg + TAC): 18.61 ± 15.09% | fluorescent intensity of collagen I ([3]; lung, 70 mg/kg + TAC): 7.591 | Mean vascular wall thickness ([3]; pulmonary arterioles inner diameter <100 um, sildenafil): 24.10 ± 7.48 | Mean vascular wall thickness ([3]; pulmonary arterioles inner diameter >100 um, sildenafil): 14.88 ± 6.83
